Measured values as given in ChEMBL document CHEMBL1201862, “PubChem BioAssay data set” (2004).
Calls of active or inactive are those of the source. Cut-off read from the data, not from the text of the source: actives have a measured IC50 and inactives only a lower limit.

Molecular target: T1, Caspase-3 (Homo sapiens, UniProt P42574)
T1 sequence (P42574 whole entry): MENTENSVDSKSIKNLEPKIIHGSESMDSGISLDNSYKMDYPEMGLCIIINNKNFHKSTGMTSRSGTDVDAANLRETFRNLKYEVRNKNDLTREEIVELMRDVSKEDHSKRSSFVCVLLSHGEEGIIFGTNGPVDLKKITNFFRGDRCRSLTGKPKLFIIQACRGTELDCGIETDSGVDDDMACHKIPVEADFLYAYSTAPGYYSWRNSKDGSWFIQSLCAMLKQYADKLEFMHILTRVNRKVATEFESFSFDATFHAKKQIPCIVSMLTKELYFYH
Format: functional
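Note: Dose-response selectivity test against caspase-3 for candidate inhibitors of sentrin-specific proteases (SENPs).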

Q: With `CC(C)=CCC1=C(OCC(=O)O)C(=O)c2ccccc2C1=O` as the compound, how does the IC50 read?
A: 15 µM (active)
